Results taken from patent US20200038423A1, “USE OF 6-O-(C8-C20 ALKYL ESTER) OF 1-O-(C1-C6 ALKYL)-ß-D-GLUCOSIDE AS AN AGENT FOR PROTECTING THE SKIN” (PIERRE FABRE DERMO-COSMETIQUE, priority 2016, published 2020).

Legend:
Format in all cases: cell-based
TGM1 = assay: RT-qPCR, modulation of genes involved in keratinocyte differentiation and hydration: TGM1; settings: CaCl2 1.5 mM; normal human keratinocytes, 48 h; protein differentiation marker
Method: (§1) Normal human keratinocytes were incubated for 48 h with 1-O-n-butyl-β-D-glucoside 6-O-lauroyl. Its effects were evaluated using the RT-qPCR technique with the analysis of 6 target genes, chosen for their importance in keratinocyte differentiation and hydration.

FABP5 = assay: RT-qPCR, modulation of genes involved in keratinocyte differentiation and hydration: FABP5; settings: CaCl2 1.5 mM; normal human keratinocytes, 48 h; lipid differentiation marker
Method: as §1

DEGS2 = assay: RT-qPCR, modulation of genes involved in keratinocyte differentiation and hydration: DEGS2; settings: CaCl2 1.5 mM; normal human keratinocytes, 48 h; lipid differentiation marker
Method: as §1

SULT2B1 = assay: RT-qPCR, modulation of genes involved in keratinocyte differentiation and hydration: SULT2B1; settings: CaCl2 1.5 mM; normal human keratinocytes, 48 h; lipid differentiation marker
Method: as §1

KLK7 = assay: RT-qPCR, modulation of genes involved in keratinocyte differentiation and hydration: KLK7; settings: CaCl2 1.5 mM; normal human keratinocytes, 48 h; protein differentiation marker
Method: as §1

CASP14 = assay: RT-qPCR, modulation of genes involved in keratinocyte differentiation and hydration: CASP14; settings: CaCl2 1.5 mM; normal human keratinocytes, 48 h; protein differentiation marker
Method: as §1

[1] = test system: Normal human keratinocytes; assay: Keratinocyte differentiation judged from RT-qPCR of 6 target genes; settings: 20 μM, incubation for 48 h
Method: as §1

[2] = test system: primary normal human keratinocytes; assay: Oris Cell Migration Assay, keratinocyte migration; settings: for % Stim (% stimulation of keratinocyte migration): 24 h migration
Method: Oris™ Cell Migration Assays were used to estimate cell migration.
Primary normal human keratinocytes isolated from tissues extracted during cosmetic surgery were seeded on 96-well plates and cultured in KSFM supplemented with 25 μg/ml bovine pituitary extract (BPE, Invitrogen) and 0.2 ng/ml EGF (Invitrogen). After 24 h of incubation, the culture medium is replaced with KSM without supplement. After 24 h of incubation, the Oris™ stoppers as well as the test compounds or positive controls are removed. The latter are 5 ng/ml TGF-β, 30 ng/ml EGF, or KSM supplemented with BPE and EGF. Incubation continues for the next 24 h to allow migration. At the end of incubation, Calcein AM dye, which penetrates the cells, is added to the wells and is converted to fluorescence which is then quantified in a detection zone using a monochromatic microplate (Clariostar, BMG Labteck).
The compound tested is 1-O-n-butyl-β-D-glucoside 6-O-lauroyl, it is solubilized in DMSO at a concentration of 100 mM. The compound is tested at 2, 10 and 20 μM. The effect of DMSO at the tested concentrations has no effect on keratinocyte migration. The experiments are repeated on 2 donors with 8 wells for each condition.
The quantification of the fluorescence emitted in the detection zone is proportional to keratinocyte migration. Statistical analyses (Mann-Whitney test) are used to analyze the effect of the compound. After fluorescence quantification, the cells were rapidly fixed in 4% paraformaldehyde before eosin-hematoxylin staining and observed under a microscope.

Compound: [Ca+2].[Cl-].[Cl-] [CaCl2]
- TGM1 expression, Mean (% Control) (TGM1): 910 % Control
- FABP5 expression, Mean (% Control) (FABP5): 501 % Control
- DEG S2 expression, Mean (% Control) (DEGS2): 217 % Control
- SULT2B1 expression, Mean (% Control) (SULT2B1): 1169 % Control
- KLK7 expression, Mean (% Control) (KLK7): 994 % Control
- CASP14 expression, Mean (% Control) (CASP14): 127 % Control

Compound: CCCCCCCCCCCC(=O)OC[C@H]1O[C@@H](OCCCC)[C@H](O)[C@@H](O)[C@@H]1O [β-LBG, 1-O-n-butyl-β-D-glucoside 6-O-lauroyl]
- keratinocyte differentiation [1]: induces reproducible keratinocyte differentiation
- keratinocyte migration ([2]; both donors tested, at either 10 μM or 20 μM): stimulates keratinocyte migration
- migration of normal human keratinocytes ([2]; concentrations of 10 to 20 μM): significantly stimulates
- % Stim (% stimulation of keratinocyte migration) ([2]; donor 1, 2 μM): −30%
- % Stim (% stimulation of keratinocyte migration) ([2]; donor 1, 10 μM): 41%
- % Stim (% stimulation of keratinocyte migration) ([2]; donor 1, 20 μM): 104%
- % Stim (% stimulation of keratinocyte migration) ([2]; donor 2, 2 μM): 46%
- % Stim (% stimulation of keratinocyte migration) ([2]; donor 2, 10 μM): 63%
- % Stim (% stimulation of keratinocyte migration) ([2]; donor 2, 20 μM): 21%

Compound: EGF: positive control of migration, 30 ng/ml EGF [reference compound]
- % Stim (% stimulation of keratinocyte migration) ([2]; donor 1, 30 ng/ml): 35%
- % Stim (% stimulation of keratinocyte migration) ([2]; donor 2, 30 ng/ml): 87%
